{"source": "patent US20230131219A1", "about": "“USE OF AGONISTS TO AUGMENT CAR T FUNCTION IN SOLID TUMORS” (The University of North Carolina at Chapel Hill, priority 2019, published 2023)", "type_in_all_cases": "in vivo, FVB-Neu mice", "key": {"[1]": {"tested_on": "NT2 tumors", "assay": "Orthotopic murine breast tumor model: tumor growth and survival", "experimental": "8-12 week old female FVB-Neu mice (Jackson Labs) were used under a protocol approved by University of North Carolina Institutional Animal Care and Use Committee. For tumor inoculation, mice were intradermally injected with 5×10^4 NT2 tumor cells into an axillary mammary gland. 21 days later (day 0), 1.5×10^6 CD4+ and 1.5×10^6 CD8+ CAR T cells were injected intravenously. Tumors were measured twice weekly with calipers and the tumor area calculated as length×width. The change of tumor area was determined by subtracting the tumor area before CAR T injection with the value on the day of the measurement. Per institutional guidelines, tumor-bearing mice were sacrificed when the tumor area reached 200 mm^2 or loss of more than 20% of total body weight. For tumor-bearing animals receiving combination therapy, animals underwent lymphodepletion with 5 Gy of whole body irradiation (X-RAD 320, Precision X-Ray) one day prior to CAR T injection. In the morning of day 0 mice were injected with 500 μg of DMXAA (Tocris) distal to the site of tumor growth with CAR T cells injected in the afternoon. Starting 1 day after CAR T infusion, anti-PD-1 (J43, 200 μg/mouse), anti-Gr-1 (RB6-8C5, […]), and […] (R4-6A2, 250 μg/mouse) mAb were injected intraperitoneally into respective recipients."}, "[2]": {"tested_on": "NT2 tumors", "assay": "Flow cytometry of CAR T cells in tumor microenvironment and spleen", "experimental": "At indicated time points, tumors were bluntly resected and cut into small pieces and processed into a single-cell suspension using gentleMACS™ Dissociator (Miltenyi). Lymphocyte enrichment was achieved by isolating cells at the interface of 44% Percoll (Sigma-Aldrich) in media and Lympholyte-M (Cedarlane). Isolated immune cells were stained as described below. The lymphocyte fraction was not enriched in experiments where absolute cell number was determined.\nAnti-Neu CAR T cells were detected using recombinant Neu/Her2.Fc fusion protein conjugated with PE (Neu-PE) (Creative Biomart). Antibodies used in in vitro assays included anti-CD45-FITC/e450 (30-F11, Invitrogen), anti-IFN-γ-APC (XMG1.2, Invitrogen), anti-TNF-PE-Cy7 (MP6-XT22, Invitrogen) and anti-IL-17A-PE (eBio17B7, Invitrogen). Tumor-infiltrating immune cells were detected and analyzed with anti-CD45-FITC, anti-CD3-e450 (17A2, Invitrogen), anti-CD4-BV510 (GKL.5, Biolegend), anti-CD8-APC-Cy7 (53-6.7 BD Biosciences), anti-CD44-PerCP5.5 (IM7, Invitrogen), anti-CD62L-APC (MEL-14, Invitrogen), anti-CD11b-BV711 (M1/70, Invitrogen), anti-F4/80-BV605 (BM8, Invitrogen), anti-Gr-1-Percp5.5 (RB6-8C5, Invitrogen), anti-PD-1-PE-Cy7 (J43, Invitrogen), anti-CD127-BV421 (A7R34, Biolegend), anti-KLGR1-BV605 (2F1, BD Bioscience). For in vivo intracellular protein staining, anti-Foxp3-PerCP5.5 (FJK-16S. Invitrogen), anti-Ki67-APC (SOLA15, Invitrogen) were used. Dead cells were excluded with Fixable Viability Stain 700 (BD Biosciences) and Fc receptors were blocked with Fc block (BD Biosciences). Cell number was determined using Count Bright Beads (Invitrogen). Data were collected using a BD LSR-Fortessa or BD Canto cytometer (BD Biosciences). Data were analyzed with FlowJo software (Treestar)."}, "[3]": {"tested_on": "NT2 tumors", "assay": "Single cell RNA sequencing of tumor infiltrating CD45+ immune cells", "conditions": "DMXAA with Th/Tc17 CAR T cells", "description": "At day 7 or day 10 after CAR-T therapy, tumors were bluntly resected and cut into small pieces and digested using Tumor Dissociation Kit, mouse (Miltenyi) in gentleMACS™ Dissociator (Miltenyi) according to manufacturer's instruction. After digestion, dead and dying cells were magnetically separated using a Dead Cell Removal Kit (Miltenyi), after which immune cells were magnetically enriched using CD45 (TIL) MicroBeads (Miltenyi). Single cells were partitioned using a Chromium Controller (10× Genomics), and gene expression sequencing libraries were generated using Chromium Single Cell 3′ Library & Gel Bead Kit v3 (10× Genomics). The libraries were pooled and sequenced using an Illumina NovaSeq 6000 (Illumina). Raw base call files were demultiplexed with Cell Ranger 3.1.0 (10× Genomics) and bcl2fastq Conversion Software v2.20.0 (Illumina).\nSingle cell results from Cell Ranger output was analyzed using Partek flow workstation (available at partek.com/application-page/single-cell-gene-expression/). In detail, single cell result from each sample of Cell Ranger output was filtered using single cell (QA/QC) filter to exclude doublets/multiplets, cells expressing genes <30 genes per cell and dead cells. Processed results were normalized using recommended method, including log normalization of gene expression and scaled to count per million. Following results were filtered out by feature (gene) that were not expressed in 99% of samples. Then the replicate samples were pooled and clustered with an unsupervised method based on PCA using the first 16 principle component. Clustered plots were visualized by t-SNE plot, where cells were clustered using shared nearest neighbor (SNN). Populations was determined by expression of key markers, including Cd3e (T cells), Adgre1 (macrophage) and Itgam and/or Itgax (myeloid cells), and T cells were further clustered by expression of Cd8 and Cd44 (activated CD8 T cells), lack of Cd44 (naive T cells), Cd4 Cd44 (activated CD4 T cells) and Cd4 Foxp3 (Treg). For comparison, samples from each treatment group was pooled by the mean expression to simulate bulk RNA-seq, and compared using GSA analysis directly. Gene hits that reached P<0.05 with more than 2 or less than −2 fold expression difference was reported and shown as a heat map for pooled samples (macrophage and myeloid cells) or Q<0.05 with 2 or −2 fold expression difference for non-pooled samples (T cells). Further detailed analysis steps can be found on Partek flow page (available at documentation.partek.com/pages/viewpage.action?pageId=12943422) and parameter setting was set as default unless indicated."}, "[4]": {"conditions": "DMXAA prior to Th/Tc17 CAR-T cell infusion, compared to mock transduced T cells or Th/Tc17 CAR-T cells alone"}, "[5]": {"conditions": "DMXAA with Th/Tc17 CAR T cells, flow cytometry"}}}
{"smiles": "Cc1ccc2c(=O)c3cccc(CC(=O)O)c3oc2c1C", "note": "[DMXAA]", "values": [{"measurement": "anti-tumor efficacy", "setting": "[1]; [4]", "result": "significantly improved"}, {"measurement": "overall survival", "setting": "[1]; [4]", "result": "significantly improved"}, {"measurement": "requirement for tumor remission", "setting": "[1]; Th/Tc17 CAR-T, DMXAA, anti-PD-1 and anti-Gr1 treatment", "result": "required for tumor remission"}, {"measurement": "persistence of CAR T cells in the TME", "setting": "[2]; DMXAA given with 7/15 CAR T cells, at a site remote from the tumor", "result": "enhanced the persistence"}, {"measurement": "number of CAR T cells", "setting": "[2]; DMXAA treatment, through day 10 post-therapy", "result": "marked increase"}, {"measurement": "number and percentage of CD4+ CAR T cells", "setting": "[2]; [5]", "result": "increase in the number and percentage"}, {"measurement": "percentage and number of CAR T cells in the TME", "setting": "[2]; [5]", "result": "greatly increased"}, {"measurement": "expression of CXCL9 and CXCL10 by myeloid cells within the TME", "setting": "[3]", "result": "increased expression"}, {"measurement": "expression of APOE, PTGS2 and AREG in myeloid cells", "setting": "[3]; day 7", "result": "reduced expression"}, {"measurement": "expression of BATF2, CXCL10, CCL5, SOCS1, NOS2 and IL12A in second myeloid cluster", "setting": "[3]; day 7", "result": "greatly enhanced expression"}, {"measurement": "expression of genes associated with M1-like macrophages including NOS2 and INHBA", "setting": "[3]; day 7", "result": "increased expression"}, {"measurement": "presence of M2-like macrophages expressing RENTLA, MMRC1, FOLR2 and IL10 in the TME", "setting": "[3]; day 7", "result": "marked decrease"}, {"measurement": "accumulation of T cells co-expressing TBX21, IFNG, CXCR3 and CCR5", "setting": "[3]; day 7, CD8+ CAR T cells", "result": "enhanced the accumulation"}]}
